# Source: patent US20210275498A1, “IMIDAZOLYL ETHANAMIDE PENTANDIOIC ACID FOR USE IN THERAPY OF SYMPTOMS RELATED TO EXPOSURE TO LETHAL RADIATION” (priority 2018, published 2021)
# Assays:
# [1] = system: C57BL/6 mice; assay: Body weight after whole-body irradiation (response profile analysis); type: in vivo; set-up: key to Supporting variable: Body weight (trend): positive trend (descriptively) +; negative trend (descriptively) −; no difference (descriptively) 0; details: for Body weight: % Difference from Baseline (g) (difference to vehicle group 2 at Day 0) / Body weight: % Difference from Vehicle / Body weight: Estimate, change relative to vehicle group 2: 5.8 Gy; for Body weight: Estimate, change relative to vehicle group 2: Group 6 GL (SCx1): 0.34 mg/kg SC SID Day 1, 2, 3, therapeutic
# Experimental: Body weights were assessed twice during acclimation (including Day −3), once prior to irradiation (Day 0), and every 3 days thereafter. Terminal body weights were also collected, with the exception of Animal 4012.
# The longitudinal data were analyzed taking into account the mean weight over time in each group and the covariance among the repeated measures by response profile analysis (Fitzmaurice et al., Wiley 2004, p 103-140.). The analysis was specified as a regression model with unstructured covariance to account for the correlation among repeated body weights of the same mouse and indicator variables for treatment groups and time, where the vehicle treatment was used as the reference group and Day 0 was taken as a reference for time.
# The response profile analyses provide the following regression coefficients estimated by the restricted maximum likelihood (REML) method: intercept—mean body weight in the reference groups VL (POx1);2 and VH (POx1);8 at Day 0 treatment—difference between the mean body weight in the treatment groups and the vehicle groups at Day 0 time—body weight change from baseline in the reference groups treatment×time—treatment effect at each day estimated by comparison of change from baseline in the treatment groups and control groups For all regression coefficients, p-values and 95%-confidence intervals are provided. This method provides interpretable estimates, is valid if treatment groups differ at baseline, allows for arbitrary patterns in the mean body weight over time (no specific time trend e. g. linear curve assumed) and arbitrary patterns in the covariance. The analysis has certain robustness, as potential risks due to model misspecification are minimal.
# [2] = system: C57BL/6 mice; assay: Peripheral hematology after whole-body irradiation; type: in vivo; set-up: key to Supporting variable: Hematology (trend): positive trend (descriptively) +; negative trend (descriptively) −; no difference (descriptively) 0
# Text: The primary outcome of this study was mortality and secondary outcomes were changes in hematology (peripheral and bone marrow). The endpoints were chosen to follow Animal Rule requirements that state that animal study endpoint be clearly related to the clinical benefit (generally, the enhancement of survival or prevention of major morbidity). The secondary endpoints were chosen to potentially contribute to an understanding of the disease or condition and a characterization of the treatment effect.
molecule,measurement,setting,value
"O=C(O)CCCC(=O)NCCc1c[nH]cn1 [Myelo001, 5-{[2-(1H-imidazol-4-yl)ethyl]amino}-5-oxo-pentanoic acid]",Body weight: % Difference from Baseline (g) (difference to vehicle group 2 at Day 0),"[1]; Day 0, Group 3 ML (IPx2): 25 mg/kg IP, Day −3 to 0 (6x), prophylactic",-0.8 g
same,Body weight: % Difference from Baseline (g) (difference to vehicle group 2 at Day 0),"[1]; Day 0, Group 4 ML (POx2): 25 mg/kg per os, Day −3 to 0 (6x), prophylactic",-0.3 g
same,Body weight: % Difference from Baseline (g) (difference to vehicle group 2 at Day 0),"[1]; Day 0, Group 5 ML (POx1): 50 mg/kg per os SID Day −2, −1, 0, prophylactic",-0.3 g
same,"Body weight: Estimate (g), change relative to vehicle Group 8","[1]; Day 0, Group 9 MH (POx1): 50 mg/kg per os SID Day 1, 2, 3, therapeutic, 6.0 Gy",0.0 g
same,Body weight: % Difference from Vehicle,"[1]; Day 3, Group 3 ML (IPx2): 25 mg/kg IP, Day −3 to 0 (6x), prophylactic",0.6 g
same,Body weight: % Difference from Vehicle,"[1]; Day 3, Group 4 ML (POx2): 25 mg/kg per os, Day −3 to 0 (6x), prophylactic",0.7 g
same,Body weight: % Difference from Vehicle,"[1]; Day 3, Group 5 ML (POx1): 50 mg/kg per os SID Day −2, −1, 0, prophylactic",0.4 g
same,"Body weight: Estimate (g), change relative to vehicle Group 8","[1]; Day 3, Group 9 MH (POx1): 50 mg/kg per os SID Day 1, 2, 3, therapeutic, 6.0 Gy",0.2 g
same,compensation of weight loss relative to vehicle Group 8 (amounts up to),"[1]; Day 3 to 30, Group 9 MH (POx1): 50 mg/kg per os SID Day 1, 2, 3, therapeutic, 6.0 Gy",up to 3.1 g
same,Body weight: % Difference from Vehicle,"[1]; Day 9, Group 3 ML (IPx2): 25 mg/kg IP, Day −3 to 0 (6x), prophylactic",0.5 g
same,Body weight: % Difference from Vehicle,"[1]; Day 9, Group 4 ML (POx2): 25 mg/kg per os, Day −3 to 0 (6x), prophylactic",0.6 g
same,Body weight: % Difference from Vehicle,"[1]; Day 9, Group 5 ML (POx1): 50 mg/kg per os SID Day −2, −1, 0, prophylactic",0.4 g
same,"Body weight: Estimate (g), change relative to vehicle Group 8","[1]; Day 9, Group 9 MH (POx1): 50 mg/kg per os SID Day 1, 2, 3, therapeutic, 6.0 Gy",0.4 g
same,Body weight: % Difference from Vehicle,"[1]; Day 15, Group 3 ML (IPx2): 25 mg/kg IP, Day −3 to 0 (6x), prophylactic",0.1 g
same,Body weight: % Difference from Vehicle,"[1]; Day 15, Group 4 ML (POx2): 25 mg/kg per os, Day −3 to 0 (6x), prophylactic",-0.8 g
same,Body weight: % Difference from Vehicle,"[1]; Day 15, Group 5 ML (POx1): 50 mg/kg per os SID Day −2, −1, 0, prophylactic",-0.4 g
same,"Body weight: Estimate (g), change relative to vehicle Group 8","[1]; Day 15, Group 9 MH (POx1): 50 mg/kg per os SID Day 1, 2, 3, therapeutic, 6.0 Gy",1.4 g
same,Body weight: % Difference from Vehicle,"[1]; Day 21, Group 3 ML (IPx2): 25 mg/kg IP, Day −3 to 0 (6x), prophylactic",1.0 g
same,Body weight: % Difference from Vehicle,"[1]; Day 21, Group 4 ML (POx2): 25 mg/kg per os, Day −3 to 0 (6x), prophylactic",-0.7 g
same,Body weight: % Difference from Vehicle,"[1]; Day 21, Group 5 ML (POx1): 50 mg/kg per os SID Day −2, −1, 0, prophylactic",-0.1 g
same,"Body weight: Estimate (g), change relative to vehicle Group 8","[1]; Day 21, Group 9 MH (POx1): 50 mg/kg per os SID Day 1, 2, 3, therapeutic, 6.0 Gy",3.1 g
same,Body weight: % Difference from Vehicle,"[1]; Day 30, Group 3 ML (IPx2): 25 mg/kg IP, Day −3 to 0 (6x), prophylactic",0.1 g
same,Body weight: % Difference from Vehicle,"[1]; Day 30, Group 4 ML (POx2): 25 mg/kg per os, Day −3 to 0 (6x), prophylactic",-1.1 g
same,Body weight: % Difference from Vehicle,"[1]; Day 30, Group 5 ML (POx1): 50 mg/kg per os SID Day −2, −1, 0, prophylactic",0.1 g
same,"Body weight: Estimate (g), change relative to vehicle Group 8","[1]; Day 30, Group 9 MH (POx1): 50 mg/kg per os SID Day 1, 2, 3, therapeutic, 6.0 Gy",2.6 g
same,Supporting variable: Body weight (trend),"[1]; Group 9 MH (POx1): 50 mg/kg per os SID Day 1, 2, 3, therapeutic, 6.0 Gy",+
same,"hemoglobin, red blood cells, hematocrit compared to group 8","[2]; Day 14 and Day 30, Group 9 MH (POx1): 50 mg/kg per os SID Day 1, 2, 3, therapeutic, 6.0 Gy",in favor of group 9
same,Supporting variable: Hematology (trend),"[2]; Group 4 ML (POx2): 25 mg/kg per os, Day −3 to 0 (6x), prophylactic, 5.8 Gy",0
"G-CSF: Neupogen (Filgrastim; Granulocyte colony-stimulating factor; G-CSF), positive control article, Amgen (protein, UniProt P09919 31-207, looked up, filgrastim, Neupogen (Filgrastim; Granulocyte colony-stimulating factor; G-CSF), positive control article, Amgen) Granulocyte …: TPLGPASSLPQSFLLKCLEQVRKIQGDGAALQEKLVSECATYKLCHPEELVLLGHSLGIPWAPLSSCPSQALQLAGCLSQLHSGLFLYQGLLQALEGISPELGPTLDTLQLDVADFATTIWQQMEELGMAPALQPTQGAMPAFASAFQRRAGGVLVASHLQSFLEVSYRVLRHLAQP","Body weight: Estimate, change relative to vehicle group 2",[1]; Day 0,-0.5 g
same,"Body weight: Estimate, change relative to vehicle group 2",[1]; Day 3,0.3 g
same,"Body weight: Estimate, change relative to vehicle group 2",[1]; Day 9,-0.4 g
same,"Body weight: Estimate, change relative to vehicle group 2",[1]; Day 15,0.4 g
same,"Body weight: Estimate, change relative to vehicle group 2",[1]; Day 21,3.3 g
same,"Body weight: Estimate, change relative to vehicle group 2",[1]; Day 30,0.5 g
same,"hemoglobin and hematocrit, red blood cells compared to control group 2","[2]; Day 14, Group 6 GL (SCx1): 0.34 mg/kg SC SID Day 1, 2, 3, therapeutic, 5.8 Gy",increased
same,median WBC and neutrophil count compared to control Group 2,"[2]; Day 30, Group 6 GL (SCx1): 0.34 mg/kg SC SID Day 1, 2, 3, therapeutic, 5.8 Gy",trend in the increase
